In the experiment the target is rat acyl CoA cholesterol acyltransferase. In words: Inhibitory action on rat acyl CoA cholesterol acyltransferase (rat liver microsome crude enzyme, [1-14C]oleoyl-CoA). To be noted: rat liver microsome fraction, pH 7.4, 37° C., 30 minutes, 30 μM oleoyl-CoA, 30 μM cholesterol; read-out: IC50 (50% inhibition concentration on the enzyme). Format: biochemical. As for the experimental part: An inhibitory action of the FO-1289 substance for acyl CoA cholesterol acyltransferase is tested according to the method of Kyoda et al. (J. Antibiotics, 44: 136 1991). A crude enzyme prepared from rat liver microsome fraction is added in the 100 mM phosphate buffer solution (pH 7.4) […] containing 300 μM bovine serum albumin. 30 μM (1-^14 C ) oleoyl-CoA (0.02 μCi) and 30 μM cholesterol (solubilized with 1/30 w/w Triton WR-1339) and incubaatd at 37° C. for 30 minutes. Total lipid is extracted with a mixture of chloroform-methanol (2:1), then each lipid is separated by thin layer chromatography (Kiesel gel GF254, developer:petroleum ether--diethyl ether--acetic acid=90:10:1). Radioactivity incorporated in the cholesterol ester fraction is analysed by RI scanner (Ambis Corp.) to assay an activity of acyl CoA cholesterol acyltransferase.
Background: Liver microsomes are a subcellular fraction often used to study metabolism.
Regarding `CC(=O)OCC1(C)C(OC(C)=O)CCC2(C)C1CC(OC(C)=O)C1(C)Oc3cc(-c4cccnc4)oc(=O)c3C(O)C21` (stereo not shown) [FO-1289A], the IC50 was 40 nM.

`CCC(=O)OCC1(C)C(OC(C)=O)CCC2(C)C1CC(OC(C)=O)C1(C)Oc3cc(-c4cccnc4)oc(=O)c3C(O)C21` (stereo not shown) [FO-1289B]: the IC50 is 100 nM.

As to `CCC(=O)OC1CC2C(C)(COC(C)=O)C(OC(C)=O)CCC2(C)C2C(O)c3c(cc(-c4cccnc4)oc3=O)OC12C` (stereo not shown) [FO-1289C], the IC50 worked out at 30 nM.

Consider `CCC(=O)OC1CCC2(C)C(CC(OC(C)=O)C3(C)Oc4cc(-c5cccnc5)oc(=O)c4C(O)C23)C1(C)COC(C)=O` (stereo not shown) [FO-1289D], for which the IC50 came to 150 nM.

(Values after US5807721A, “Compound FO-1289, process of production with aspergillus and strain” (The Kitasato Institute, priority 1992, dated 1998).)
